Tests used:
[1] = target: T1, CSK (Homo sapiens, UniProt P41240); test: Human CSK enzymatic assay (AlphaScreen, Poly (Glu4-Tyr) substrate); assay type: biochemical; details: 100 uM ATP; read-out: CSK IC50 (μM) COFACTOR: 100 uM ATP
T1 construct: purchased Thermo Fisher
Description: This assay measures the ability of CSK to phosphorylate a biotinylated peptide containing multiple tyrosine residues in vitro. The CSK enzyme was purchased from Thermo Fisher. The biotinylated Poly (Glu4-Tyr) peptide substrate was purchased from Sigma-Aldrich. The CSK enzyme assay was performed using 0.75 ng CSK enzyme and 30 nM Poly (Glu4-Tyr) substrate in the presence of 25 mM Hepes pH 7.5, 5 mM Mg Acetate, 0.1% NP-40, 1 mM DTT, 0.01% BSA, and 100 μM ATP. A 19 μL volume of the above reaction mixture was added to wells of 384-well AlphaPlate (PerkinElmer GA, USA) containing 1 μL of various concentrations of test compound or DMSO vehicle and incubated for 60 minutes at room temperature. 16 wells containing all the components of reaction mixture and 5% DMSO serve as high control. 16 wells containing all the components except ATP of reaction mixture and 5% DMSO served as low control. The enzymatic reaction was stopped by the addition of 5 μL stop/detection mixture containing 25 mM Hepes pH 7.5 100 mM EDTA, and 5 μg/mL streptavidin-coated AlphaScreen donor beads (PerkinElmer GA, USA) and incubated for 20 minutes. A 5 μL mixture containing 25 mM Hepes pH 7.5, 100 mM EDTA, and 5 μg/mL anti-phosphotyrosine antibody PY20-coated AlphaScreen acceptor beads (PerkinElmer GA, USA) was added and the plate was incubated for 1 hour at room temperature. The streptavidin donor beads bind to the biotin moiety on the biotinylated Poly (Glu4-Tyr) substrate and the PY20 antibody-coated acceptor beads bind to tyrosine residues on the substrate that have been directly phosphorylated by CSK. Upon excitation of these beads with laser light at 680 nm, singlet oxygen was produced. This singlet oxygen was rapidly quenched, unless the AlphaScreen PY20 acceptor beads are in close proximity, in which case a proximity signal can be measured at 580 nm. In the presence of catalytic activity, there was a very strong proximity signal. Selective CSK inhibitors affect a decrease in this proximity signal through a decrease in phosphorylation of the Poly (Glu4-Tyr) substrate. The percentage of inhibition at individual concentrations relative to high and low controls was calculated. The data were analyzed by using nonlinear regression to generate IC50 values. Human LCK enzymatic assay

[2] = system: Jurkat/NFAT-RE cells; test: NFAT reporter assay (luciferase) in Jurkat/NFAT-RE cells; assay type: cell-based; details: Homo sapiens, 0.02 μg/mL anti-CD3 antibody OKT3, 3 hours, read-out: Jurkat EC50 (uM) Cell Assay: Reporter Cell Variant: NFAT response element
Source text: To assess the ability of CSK inhibitors to activate LCK and stimulate signaling downstream of the T-cell receptor, an NFAT reporter assay was used for monitoring of LCK activation in cells through the activation of LCK-dependent signaling through a reporter assay. The Jurkat T-cell cell line was genetically engineered to express a luciferase reporter that is regulated by the NFAT-response element. (Clipstone, N. A., & Crabtree, G. R., Identification of calcineurin as a key signalling enzyme in T-lymphocyte activation, Nature, 357(6380), 695-697, 1992). Stimulation of the T-cell receptor with anti-CD3 antibody increases the expression of the luciferase reporter. To test the ability of CSK inhibitors to stimulate LCK and downstream T-cell signaling, the cells were stimulated with a suboptimal concentration of anti-CD3 ligand, to measure the ability of CSK inhibitors to increase luciferase expression.
This assay measures the signaling activity downstream of the T-cell receptor, specifically the ability of the NFAT transcription factor to be translocated to the nucleus and induce expression of a firefly luciferase gene. Jurkat/NFAT-RE cells stably expressing the NFAT reporter construct were purchased from BPS Bioscience. The assay was performed by plating 40,000 Jurkat/NFAT-RE cells in a 50 μL volume of serum-free growth media in a 96-well plate. Following an overnight incubation, the cells were treated with CSK inhibitors and 0.02 μg/mL anti-CD3 antibody OKT3 (BD Bioscience) for 3 hours at 37° C. High control wells were stimulated with DMSO and 5 μg/mL OKT3 to maximally stimulate the NFAT reporter, and low control wells were stimulated with DMSO and 0.02 μg/mL OKT3. Following the 3 hour incubation, the cells were assayed for viability using CellTiter-Fluor™ (Promega), and for luciferase expression using ONE-Glo™ (Promega). The ONE-Glo™ signal was normalized to the CellTiter-Fluor™ signal, and the percentage of NFAT activation relative to high and low controls was calculated. The data were analyzed by using nonlinear regression to generate EC50 values. Selective CSK inhibitors affect an increase in luciferase expression in the presence of low level stimulation of the T-cell receptor.

[3] = target: T2, LCK (Homo sapiens, UniProt P06239); test: Human LCK enzymatic assay (AlphaScreen, Poly (Glu4-Tyr) substrate); assay type: biochemical; details: 100 uM ATP; read-out: LCK IC50 (uM) COFACTOR: 100 uM ATP
T2 construct: purchased ProQinase
Description: This assay measures the ability of LCK to phosphorylate a biotinylated peptide containing multiple tyrosine residues in vitro. The LCK enzyme was purchased from ProQinase. The biotinylated Poly (Glu4-Tyr) peptide substrate was purchased from Sigma-Aldrich. The LCK enzyme assay was performed using 1 ng LCK enzyme and 30 nM Poly (Glu4-Tyr) substrate in the presence of 25 mM Hepes pH 7.5, 10 mM MnCl2, 50 mM NaCl, 0.01% Tween-20, 0.5 mM DTT, 0.01% BSA, and 100 μM ATP. A 19 μL volume of the above reaction mixture was added to wells of 384-well AlphaPlate (PerkinElmer GA, USA) containing 1 μL of various concentrations of test compound or DMSO vehicle and incubated for 40 minutes at 25° C. 16 wells containing all the components of reaction mixture and 5% DMSO served as high control. 16 wells containing all the components except ATP of reaction mixture and 5% DMSO served as low control. The enzymatic reaction was stopped by the addition of 5 μL stop/detection mixture containing 25 mM Hepes pH 7.5 100 mM EDTA, and 10 μg/mL streptavidin-coated AlphaScreen donor beads (PerkinElmer GA, USA) and incubated for 20 minutes. A 5 μL mixture containing 25 mM Hepes pH 7.5, 100 mM EDTA, and 10 μg/mL anti-phosphotyrosine antibody PY20-coated AlphaScreen acceptor beads (PerkinElmer GA, USA) was added and the plate was incubated for 1 hour at room temperature. The streptavidin donor beads bind to the biotin moiety on the biotinylated Poly (Glu4-Tyr) substrate and the PY20 antibody-coated acceptor beads bind to tyrosine residues on the substrate that have been directly phosphorylated by LCK. Upon excitation of these beads with laser light at 680 nm, singlet oxygen was produced. This singlet oxygen was rapidly quenched, unless the AlphaScreen PY20 acceptor beads are in close proximity, in which case a proximity signal can be measured at 580 nm. In the presence of catalytic activity, there was a very strong proximity signal. Selective LCK inhibitors affect a decrease in this proximity signal through a decrease in phosphorylation of the Poly (Glu4-Tyr) substrate. The percentage of inhibition at individual concentrations relative to high and low controls was calculated. The data were analyzed by using nonlinear regression to generate IC50 values.

T2 sequence (P06239 whole entry): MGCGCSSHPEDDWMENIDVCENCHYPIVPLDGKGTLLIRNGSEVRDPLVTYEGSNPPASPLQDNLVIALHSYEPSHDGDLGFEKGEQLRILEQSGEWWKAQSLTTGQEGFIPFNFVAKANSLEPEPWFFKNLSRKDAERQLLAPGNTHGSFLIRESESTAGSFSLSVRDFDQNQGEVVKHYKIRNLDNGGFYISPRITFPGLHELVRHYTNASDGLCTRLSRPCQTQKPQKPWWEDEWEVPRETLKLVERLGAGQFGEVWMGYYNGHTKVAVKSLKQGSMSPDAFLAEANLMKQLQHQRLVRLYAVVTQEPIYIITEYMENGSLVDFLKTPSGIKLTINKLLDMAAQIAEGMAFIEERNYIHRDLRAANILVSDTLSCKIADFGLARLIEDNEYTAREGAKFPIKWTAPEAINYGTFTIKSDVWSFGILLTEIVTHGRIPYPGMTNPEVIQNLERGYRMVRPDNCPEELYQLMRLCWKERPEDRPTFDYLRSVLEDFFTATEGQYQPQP

Row | IC50 [1] [µM] | EC50 [2] [µM] | IC50 [3] [µM] | SMILES
1 | 0.001 to 0.5 | 0.5 to 5 | 5 to 100 | COCCNc1cc2c(cn1)cc(-c1c(F)ccc(NS(=O)(=O)c3cc4scnc4cc3F)c1F)c(=O)n2CC1CC1 [P-0011, N-(3-(1-(cyclopropylmethyl)-7-((2-methoxyethyl)amino)-2-oxo-1,2-dihydro-1,6-naphthyridin-3-yl)-2,4-difluorophenyl)-5-fluorobenzo[d]thiazole-6-sulfonamide]
2 | 0.001 to 0.5 | 0.5 to 5 | 5 to 100 | Nc1cc2[nH]c(=O)c(-c3c(F)ccc(NS(=O)(=O)c4cc5scnc5cc4F)c3F)cc2cn1 [P-0007, N-(3-(7-amino-2-oxo-1,2-dihydro-1,6-naphthyridin-3-yl)-2,4-difluorophenyl)-5-fluorobenzo[d]thiazole-6-sulfonamide]
3 | 0.5 to 5 | 0.5 to 5 | 5 to 100 | O=c1c(-c2c(F)ccc(NS(=O)(=O)c3cc4scnc4cc3F)c2F)cc2cnc(NCCO)cc2n1C1CC(F)(F)C1 [P-0015, N-(3-(1-(3,3-difluorocyclobutyl)-7-((2-hydroxyethyl)amino)-2-oxo-1,2-dihydro-1,6-naphthyridin-3-yl)-2,4-difluorophenyl)-5-fluorobenzo[d]thiazole-6-sulfonamide]
4 | 0.001 to 0.5 | 0.5 to 5 | 5 to 100 | Nc1cc2c(cn1)cc(-c1c(F)ccc(NS(=O)(=O)c3cc4scnc4cc3F)c1F)c(=O)n2C1CC(F)(F)C1 [P-0009, N-(3-(7-amino-1-(3,3-difluorocyclobutyl)-2-oxo-1,2-dihydro-1,6-naphthyridin-3-yl)-2,4-difluorophenyl)-5-fluorobenzo[d]thiazole-6-sulfonamide]
5 | 0.001 to 0.5 | 0.001 to 0.5 | 0.001 to 0.5 | Nc1cc2c(cn1)cc(-c1c(F)ccc(NS(=O)(=O)c3ccc4ncsc4c3F)c1F)c(=O)n2CC1CC1 [P-0001, N-(3-(7-amino-1-(cyclopropylmethyl)-2-oxo-1,2-dihydro-1,6-naphthyridin-3-yl)-2,4-difluorophenyl)-7-fluorobenzo[d]thiazole-6-sulfonamide]
6 | 0.001 to 0.5 | 0.001 to 0.5 | 0.5 to 5 | Nc1cc2c(cn1)cc(-c1c(F)ccc(NS(=O)(=O)c3ccc4ncsc4c3)c1F)c(=O)n2CC(F)F [P-0023, N-(3-(7-amino-1-(2,2-difluoroethyl)-2-oxo-1,2-dihydro-1,6-naphthyridin-3-yl)-2,4-difluorophenyl)benzo[d]thiazole-6-sulfonamide]
7 | 0.001 to 0.5 | 0.001 to 0.5 | 5 to 100 | CC(F)(F)Cn1c(=O)c(-c2c(F)ccc(NS(=O)(=O)c3cc4scnc4cc3F)c2F)cc2cnc(N)cc21 [P-0016, N-(3-(7-amino-1-(2,2-difluoropropyl)-2-oxo-1,2-dihydro-1,6-naphthyridin-3-yl)-2,4-difluorophenyl)-5-fluorobenzo[d]thiazole-6-sulfonamide]
8 | 0.001 to 0.5 | 0.001 to 0.5 | 0.5 to 5 | O=c1c(-c2c(F)ccc(NS(=O)(=O)c3cc4scnc4cc3F)c2F)cc2cnc(Nc3ccn(C(F)F)n3)cc2n1C1CC(F)(F)C1 [P-0013, N-(3-(1-(3,3-difluorocyclobutyl)-7-((1-(difluoromethyl)-1H-pyrazol-3-yl)amino)-2-oxo-1,2-dihydro-1,6-naphthyridin-3-yl)-2,4-difluorophenyl)-5-fluorobenzo[d]thiazole-6-sulfonamide]
9 | 0.001 to 0.5 | 0.001 to 0.5 | 5 to 100 | Nc1cc2c(cn1)cc(-c1c(F)ccc(NS(=O)(=O)c3cc4scnc4cc3F)c1F)c(=O)n2C1CC1 [P-0008, N-(3-(7-amino-1-cyclopropyl-2-oxo-1,2-dihydro-1,6-naphthyridin-3-yl)-2,4-difluorophenyl)-5-fluorobenzo[d]thiazole-6-sulfonamide]
10 | 0.001 to 0.5 | 0.001 to 0.5 | 5 to 100 | Nc1cc2c(cn1)cc(-c1c(F)ccc(NS(=O)(=O)c3cc4scnc4cc3F)c1F)c(=O)n2CC(F)F [P-0003, N-(3-(7-amino-1-(2,2-difluoroethyl)-2-oxo-1,2-dihydro-1,6-naphthyridin-3-yl)-2,4-difluorophenyl)-5-fluorobenzo[d]thiazole-6-sulfonamide]
11 | 0.001 to 0.5 | 0.001 to 0.5 | 0.5 to 5 | O=c1c(-c2c(F)ccc(NS(=O)(=O)c3cc4scnc4cc3F)c2F)cc2cnc(Nc3ccn(C(F)F)n3)cc2n1C1CC1 [P-0012, N-(3-(1-cyclopropyl-7-((1-(difluoromethyl)-1H-pyrazol-3-yl)amino)-2-oxo-1,2-dihydro-1,6-naphthyndin-3-yl)-2,4-difluorophenyl)-5-fluorobenzo[d]thiazole-6-sulfonamide]
12 | 0.001 to 0.5 | 0.5 to 5 | 5 to 100 | CC1(n2c(=O)c(-c3c(F)ccc(NS(=O)(=O)c4cc5scnc5cc4F)c3F)cc3cnc(N)cc32)CC1 [P-0006, N-(3-(7-amino-1-(1-methylcyclopropyl)-2-oxo-1,2-dihydro-1,6-naphthyridin-3-yl)-2,4-difluorophenyl)-5-fluorobenzo[d]thiazole-6-sulfonamide]
13 | 0.001 to 0.5 | 0.001 to 0.5 | 5 to 100 | Nc1cc2c(cn1)cc(-c1c(F)ccc(NS(=O)(=O)c3cc4scnc4cc3F)c1F)c(=O)n2C1CCC1 [P-0024, N-(3-(7-amino-1-cyclobutyl-2-oxo-1,2-dihydro-1,6-naphthyridin-3-yl)-2,4-difluorophenyl)-5-fluorobenzo[d]thiazole-6-sulfonamide]

From patent US20210315869A1, “COMPOUNDS AND METHODS FOR CSK MODULATION AND INDICATIONS THEREFOR” (Plexxikon Inc., priority 2020, published 2021)
